# Measured values from US20110118298A1, “COMPOSITIONS, KITS, AND METHODS FOR IDENTIFICATION, ASSESSMENT, PREVENTION, AND THERAPY OF CANCER” (INFINITY PHARMACEUTICALS, INC., priority 2009, published 2011).
# Entries after “also recorded” stand apart in the source; their conditions may differ. Where a name gives a salt, the structure may show the parent alone. Marks after values point to notes of the source that are not given here.
# Legend:
# [1] = system: H3122 xenograft; experiment: H3122 xenograft, tumor volume; assay type: in vivo, nude mice; conditions: IPI-504 75 mg/kg twice weekly
# Experimental: Tumor volume (in mm^3) is shown as a function of days of treatment.
# Tumor volumes were assessed as described above.
# [2] = system: AKT/mTOR pathway; experiment: Immunoblot of BON-1 cells, IPI-504, rapamycin or both; assay type: cell-based; conditions: BON-1, 6 or 24 hours, 1 μM IPI-504, 100 nM rapamycin or both
# Experimental: BON-1 cells were incubated for either 6 hours or 24 hours with 1 uM of IPI-504, 100 nM rapamycin (Sigma) or the combination of both. 50 ug of cell lysate was immunoblotted for pAKT, total AKT, pS6, total S6, pERK 1/2 (Cell Signaling), IGF-1Rb, Hsp70, and b-actin (Santa Cruz). Image analysis and band quantization were performed with the Bio-Rad Versa Doc system. The expression of GADPH was used as a control for protein loading.
# Since the PI3K/Akt/mTOR pathway is activated in neuroendocrine tumors, GEP-NET cells were treated with IPI-504 and drugs which inhibit the AKT/mTOR pathway to look for combination effects. In one experiment, BON-1 cells were incubated for 6 or 24 hours with 1 μM IPI-504, 100 nM rapamycin or the combination of both. Fifty μg of cell lysate was immunoblotted for pAKT, total AKT, pS6, IGF-1Rβ, Hsp70, and β-actin.
# [3] = system: non-small cell lung cancer (NSCLC); experiment: Phase II study of IPI-504 monotherapy in advanced NSCLC after EGFR TKI therapy: response and PFS; assay type: in vivo, human
# Excerpt: Patients with advanced NSCLC, prior treatment with EGFR TKIs, and tumor tissue available for molecular genotyping were enrolled in this prospective, non-randomized, multicenter, phase II study of IPI-504 monotherapy. The primary outcome was objective response rate. Secondary aims included safety, progression-free survival (PFS), and analysis of activity by molecular subtypes.
# Each genotype-defined arm of the trial (mutant EGFR cohort or wild-type EGFR cohort) functioned as a Simon two-stage study with planned interim evaluation after 10 patients and expanded enrollment of an additional 19 patients (a total of 29 patients) if there was at least one patient with a complete response (CR), partial response (PR) or stable disease (SD) lasting 3 months. As pre-defined EGFR genotype was not a requirement at study entry, the trial remained open until both cohorts fully enrolled, which led to over-enrollment of the wild-type arm. Secondary aims included describing the safety and progression-free survival (PFS) of the regimen, and examining molecular markers associated with response.
# Patients were recruited between December 2007 and May 2009 from ten US cancer centers. To be eligible, patients had to have stage IIIB (with pleural effusion), or stage 1V NSCLC with progression on EGFR TKI therapy at some point in their history; adequate baseline renal, hepatic, and bone marrow function; Eastern Cooperative Oncology Group performance status (PS) of 0-2; measurable disease by RECIST 1.0; no active or untreated central nervous system (brain) metastases; no significant cardiac conduction abnormalities; no ongoing keratoconjunctivitis; and either previously defined EGFR genotype or sufficient tumor tissue to undergo genotype assessment, for example, EGFR mutation analysis (EGFR status not required for study entry) (Therasse, P. et al. (2000) J Natl Cancer Inst 92, 205-216; Oken, M. M. et al. (1982) Am J Clin Oncol. 5:649-655). Patients had experienced prior EGFR TKI therapy and there was no limit on prior therapies. All patients signed a written informed consent and the study was monitored by all local institutional review boards. Funding for the trial was provided by Infinity Pharmaceuticals, Inc.
# Treatment consisted of a 30-minute infusion of intravenous IPI-504 on days 1, 4, 8 and 11 of a 21-day cycle. Therapy continued until progressive disease (PD), intolerable side effects, or elective withdrawal. A total of 76 patients were enrolled. The starting dose was 400 mg/m^2 for 75 patients. In April 2009, the dose for patients who were on study (19 patients) was lowered to 225 mg/m^2, due to hepatotoxicities observed at the 400 mg/m^2 dose in a separate trial of IPI-504 in patients with gastrointestinal stromal tumors (GIST) (Demetri G. D. et al. Final results from a phase III study of IPI-504 (retaspimycin hydrochloride) versus placebo in patients with gastrointestinal stromal tumors (GIST) following failure of kinase inhibitor therapies. Paper presented at: Gastrointestinal Cancers Symposium; Jan. 22-24, 2010, 2010; Orlando, Fla.), and the last enrolled patient started at a dose of 225 mg/m^2.
# All patients were assessed for safety by history, physical examination, blood chemistries, liver function tests and blood counts, at baseline and prior to each infusion. Amylase and lipase were assessed if there were symptoms of pancreatitis. Adverse events were graded using the NCl common toxicity criteria version 3.0 (NCl. Common terminology criteria for adverse events (CTCAE) version 3.0 Aug. 9, 2006). Slit lamp eye examinations were performed during screening and electrocardiograms were obtained during screening and before and after the first infusion, to evaluate for keratitis and QTc prolongation, respectively. Radiographic evaluation of tumor response by CT-scan was performed after every 2 cycles. All films were reviewed and independently assessed by a central radiology core laboratory. […]
# [4] = system: MAPK pathway (p-bRAF, p-MEK), cleaved caspase 3 in Colo320HSR xenograft; experiment: Pharmacodynamic analysis after a single dose, wild-type xenograft; assay type: in vivo; conditions: single 100 mpk dose of IPI-493, Colo320HSR; 100 mg/kg
# Experimental: To further investigate a potential correlation between the effect of IPI-493 on molecular components of the RAS-RAF-ERK pathway and efficacy, pharmacodynamic analysis was performed on mutant bRAF (Colo205, Colo201) and wild-type (Colo320HSR) xenograft models after a single 100 mpk dose. […] Moreover, when p-MEK activity was assessed for all the CRC xengrafts, there was a clear delineation of sensitivity between mutant and wild type models, further supporting the hypothesis that MAPK pathway activity can be a surrogate for IPI-493 efficacy. […] Altogether, these provide rationale for a clinical path in this disease.
structure (smiles),measurement,setting,value
"C=CCNc1c(O)cc2c(O)c1C[C@@H](C)C[C@H](OC)[C@H](O)[C@@H](C)/C=C(\C)[C@H](OC(N)=O)[C@@H](OC)/C=C\C=C(/C)C(=O)N2 [IPI-504, retaspimycin hydrochloride]",tumor response,[1],tumor regression
same,effect on AKT and signalling downstream of mTOR,[2],AKT degradation
same,time on IPI-504 without progression or death,[3]; 3 patients with ALK rearrangements,approximately 7 months
same,RECIST Stable Disease or better for at least 3 months,[3]; ALK No Rearrangement Detected,3 (25) n [%]
same,Objective Response Rate (All PRs),"[3]; ALK No Rearrangement Detected, 12 patients",1 (8) n [%]
same,Median PFS,"[3]; ALK No Rearrangement Detected, no unit in table",2.43
same,RECIST Stable Disease or better for at least 3 months,[3]; ALK Rearrangement Detected,3 (100) n [%]
same,Objective Response Rate (All PRs),"[3]; ALK Rearrangement Detected, 3 patients",2 (67) n [%]
same,RECIST Stable Disease or better for at least 3 months,[3]; EGFR Mutant,6 (21) n [%]
same,Objective Response Rate (All PRs),"[3]; EGFR Mutant, 28 patients",1 (4) n [%]
same,Median PFS,"[3]; EGFR Mutant, no unit in table",2.76
same,RECIST Stable Disease or better for at least 3 months,[3]; EGFR Wild Type,10 (25) n [%]
same,Objective Response Rate (All PRs),"[3]; EGFR Wild Type, 40 patients",4 (10) n [%]
same,Median PFS,"[3]; EGFR Wild Type, no unit in table",2.86
same,response rate,[3]; EGFR wild-type patients,10%
same,RECIST Stable Disease or better for at least 3 months,[3]; KRAS Mutant,5 (42) n [%]
same,Objective Response Rate (All PRs),"[3]; KRAS Mutant, 12 patients",0 (0) n [%]
same,Median PFS,"[3]; KRAS Mutant, no unit in table",3.91
same,RECIST Stable Disease or better for at least 3 months,[3]; KRAS Wild Type,4 (15) n [%]
same,Objective Response Rate (All PRs),"[3]; KRAS Wild Type, 26 patients",3 (12)* n [%]
same,Median PFS,"[3]; KRAS Wild Type, no unit in table",2.86
same,response rate,[3]; KRAS wild-type patients,12%
same,Objective Response Rate (All PRs),"[3]; Total, 76 patients",5 (7) n [%]
same,RECIST Stable Disease or better for at least 3 months,"[3]; Total, 76 patients",18 (24) n [%]
same,Median PFS,"[3]; Total, no unit in table, months",2.86
same,Median PFS,[3]; all patients,2.86 months
same,patients with partial response,[3]; of the 3 patients with an ALK gene rearrangement,2 patients
same,overall response rate,[3]; overall study population,7%
same,response rate,[3]; patients with EGFR mutations,4%
same,response rate,[3]; patients with an ALK rearrangement,67%
same,reduction in tumor size,[3]; third patient with ALK rearrangement (stable disease),24%
"CO[C@H]1/C=C\C=C(/C)C(=O)NC2=CC(=O)C(N)=C(C[C@@H](C)C[C@H](OC)[C@H](O)[C@@H](C)/C=C(\C)[C@@H]1OC(N)=O)C2=O [IPI-493, 17-AG]","p-bRAF, p-MEK, cleaved caspase 3 in wild type model",[4],little effect of IPI-493 administration; also recorded: Minimal changes
